Data: paper PMC6646369, “A new bioavailable fenretinide formulation with antiproliferative, antimetabolic, and cytotoxic effects on solid tumors” (Cell Death & Disease, 2019)
≈ marks a conversion by molar mass, not a printed value.

How the values were obtained:
[1] = Aqueous solubility of fenretinide (saturation in water, spectrophotometric at 360 nm); format: physicochemical; settings: water at 25 °C; read-out: Solubility in H2O
Procedure: The first step of NanoFEN preparation involved fenretinide salification to raise its aqueous solubility to the extent required for complexation with cyclodextrins. […] The complex was analyzed by ^1H-NMR to detect the presence of chemical shift changes with respect to the free drug as indicators of fenretinide inclusion into the cyclodextrin hydrophobic cavity. […] The ^1H-NMR spectra were recorded by an Inova 600 MHz High Resolution NMR Spectrometer. The amount of fenretinide incorporated into the complex was spectrophotometrically determined in solutions obtained by dissolving known amounts of the solid complex in a water:ethanol (1:1, v-v) mixture with the aim to dissociate the drug from the complex and maintain its solubilization in the aqueous phase in the presence of ethanol. The hydro-alcoholic solutions were analyzed for their fenretinide content at the maximum wavelength of the fenretinide absorption (360 nm). The aqueous solubility of fenretinide complexed with 2-hydroxypropyl-β-cyclodextrin was measured in comparison with the pure drug. […] After filtration the saturated solutions were spectrophotometrically analysed at 360 nm for their fenretinide content.

[2] = Plasma pharmacokinetics of fenretinide in mice; format: in vivo, CD1 female mice
Procedure: The experiments were performed in CD1 female mice, 7 weeks of age, (body weight 25 ± 2 g) obtained from Envigo RMS SrL (Udine, Italy). Mice were maintained under specific-pathogen-free conditions with constant temperature and humidity, according to the institutional guidelines of the Istituto Superiore di Sanità Animal Care Committee. Animal experimentation was conducted in conformance with the following laws, regulations, and policies governing the care and use of laboratory animals: Italian Governing Law (D. l. 26/2014; Authorization n.19/2008-A issued March 6, 2008 by the Ministry of Health). The pharmacokinetics of NanoFEN, administered by oral or intravenous route, was investigated in mice receiving the formulation at doses corresponding to 5 mg/kg of fenretinide. The intravenous administration was carried out by injection in the tail vein of an intravenous bolus of NanoFEN dissolved in water or PureFEN suspended in a mixture of ethanol 10 % in saline as a comparison. For the oral administration the mice were gavaged the with NanoFEN dissolved in water or with the reconstituted content of the NCI capules, i.e., fenretinide (100 mg) in corn oil (704 mg) and Polysorbate 80 (60 mg) as a comparison. After the intravenous or oral treatments, a series of blood samples were taken at 15 and 30 min and at 1, 2, 4, 8, 10, 24 and 48 h. Blood was collected in heparinized tubes from the retro-orbital plexus of the mice under isoflurane anesthesia. To obtain plasma, blood samples were centrifuged at 4000 rpm for 10 min at 4 °C. The samples were stored at −20 °C until analysis. The total concentration of fenretinide in plasma of mice was determined according to a method previously described. Briefly, aliquot of 200 μl of each plasma sample was added to 400 μl of Acetonitrile (CH3CN) containing 125 μg/mL Butylated hydroxytoluene (BHT), and the mixture was vortexed and centrifuged to pellet the precipitated proteins. The recovered supernatants were analysed on a liquid chromatograph (Perkin-Elmer, Norwall, CT) fitted with a C18 (50 mm × 2.0 mm, 5 μm) reverse-phase column and a C18 precolumn (Perkin-Elmer, Milan, Italy). The mobile phase consisted of CH3CN:H2O:CH3COOH (75:2:2, v:v:v) delivered at a flow rate of 2 mL/min. Detection was carried out with a Perkin-Elmer LC95 absorbance detector at 362 nm. N-(4-ethoxyphenyl)-retinamide (EPR) was used as internal standard. For the quantitative evaluation, reference standard curves were set up in control mouse plasma with different known amounts of NanoFEN or PureFEN. The measured fenretinide concentration-vs-time data were elaborated by non-compartmental analysis (WinNonLin software v3) to obtain the main pharmacokinetic parameters of NanoFEN.

[3] = mouse, iv, CD1 female mice, 5 mg/Kg fenretinide, plasma
[4] = mouse, plasma, iv, CD1 female mice, 5 mg/Kg fenretinide

Question: Which results are given for `CC1=C(/C=C/C(C)=C/C=C/C(C)=C/C(=O)Nc2ccc(O)cc2)C(C)(C)CCC1` [PureFEN, N-(4-Hydroxyphenyl) retinamide]?
Answer: solubility at 12 h [1]: 1.71 µg/mL (≈ 4.37 µM); HL ([2]; CD1 female mice, 5 mg/Kg fenretinide, i.v.): 7.87 h; AUC ([2]; female, CD1, mouse, iv, Fig. 1e, single administration of 5 mg/kg, plasma): 6570 ng·h/mL; AUC(0-inf) [2, 3]: 6570 ng·h/mL; AUC(0-t) [2, 3]: 6420 ng·h/mL; Cmax [2, 3]: 4130 ng/mL; Vd [2, 4]: 6.52 L/kg; clearance [2, 4]: 9.57 mL/min/kg; k el ([2]; mouse, plasma, iv, CD1 female mice, 5 mg/Kg fenretinide, i.v., read-out: Ke (converted)): 2.44e-05 s⁻¹
